Laboratory results as given in ChEMBL document CHEMBL4373673, “Druggability profile of stilbene-derived PPAR agonists: determination of physicochemical properties and PAMPA study” (Medchemcomm, 2019).
Converted amounts (≈) assume the structure as drawn.

How the values were obtained:
[1] = Solubility of the compound in water; assay type: physicochemical
[2] = Octanol/water partition coefficient, logP of compound by RP-UHPLC analysis; assay type: physicochemical
[3] = Thermodynamic solubility of compound in buffer containing KH2PO4/Na2HPO4 with 1% v/v DMSO at pH 6.8 incubated for 24 hrs by spectrophotometric analysis; assay type: physicochemical; details: for Therm_solubility: buffer, pH 6.8, 24 h; for solubility thermodynamic at 24 h: KH2PO4/Na2HPO4 buffer, pH 6.8, read-out: Therm_solubility
[4] = Thermodynamic solubility of compound in buffer containing KH2PO4/Na2HPO4 with 1% v/v DMSO at pH 7.4 incubated for 24 hrs by spectrophotometric analysis; assay type: physicochemical; details: for solubility thermodynamic at 24 h: KH2PO4/Na2HPO4 buffer, pH 7.4, read-out: Therm_solubility
[5] = Kinetic solubility of compound in HDM-PAMPA with buffer containing 5% DMSO at pH 6.8 incubated for 5 hrs by spectrophotometric analysis; assay type: ADME; details: for solubility kinetic at 5 h: HDM-PAMPA buffer, pH 6.8, read-out: Kinetic_solubility
[6] = Thermodynamic solubility of compound in buffer containing HCl/KCl with 1% v/v DMSO at pH 1.2 incubated for 24 hrs by spectrophotometric analysis; assay type: physicochemical; details: for Therm_solubility: buffer, pH 1.2, 24 h; for solubility thermodynamic at 24 h: HCl/KCl buffer, pH 1.2, read-out: Therm_solubility
[7] = Kinetic solubility of compound in HDM-PAMPA with buffer containing 5% DMSO at pH 7.4 incubated for 5 hrs by spectrophotometric analysis; assay type: ADME; details: read-out: Kinetic_solubility
[8] = Kinetic solubility of compound in HDM-PAMPA with buffer containing 5% DMSO at pH 1.2 incubated for 5 hrs by spectrophotometric analysis; assay type: ADME; details: for Kinetic_solubility: pampa, pH 1.2, 5 h; for solubility kinetic at 5 h: HDM-PAMPA buffer, pH 1.2, read-out: Kinetic_solubility
[9] = Apparent solubility of compound in fed state simulated intestinal fluid at pH 5 by spectrophotometric analysis; assay type: physicochemical
[10] = Apparent solubility of compound in fasted state simulated intestinal fluid at pH 6.5 by spectrophotometric analysis; assay type: physicochemical
[11] = Ratio of compound kinetic solubility to gemfibrozil kinetic solubility in HDM-PAMPA with buffer containing 5% DMSO at pH 6.8 incubated for 5 hrs by spectrophotometric analysis
[12] = Ratio of compound kinetic solubility to gemfibrozil kinetic solubility in HDM-PAMPA with buffer containing 5% DMSO at pH 7.4 incubated for 5 hrs by spectrophotometric analysis
[13] = Ratio of compound kinetic solubility to clofibric acid kinetic solubility in HDM-PAMPA with buffer containing 5% DMSO at pH 7.4 incubated for 5 hrs by spectrophotometric analysis
[14] = Ratio of compound kinetic solubility to clofibric acid kinetic solubility in HDM-PAMPA with buffer containing 5% DMSO at pH 6.8 incubated for 5 hrs by spectrophotometric analysis

logP [2]	Therm_solubility [3]	solubility thermodynamic at 24 h [4]	Kinetic_solubility ([5]; pampa, pH 6.8, 5 h)	Therm_solubility [6]	solubility kinetic at 5 h [7]	Kinetic_solubility [8]	solubility [9]	solubility [10]	solubility thermodynamic at 24 h [3]	solubility kinetic at 5 h [5]	solubility kinetic at 5 h [8]	solubility thermodynamic at 24 h [6]	Therm_solubility ([4]; buffer, pH 7.4, 24 h)	SMILES	solubility [1]	Ratio [11]	Ratio [12]	Ratio [13]	Ratio [14]
														CCN(C)C(=O)Oc1cccc([C@H](C)N(C)C)c1 [RIVASTIGMINE]	2040 µg/mL (≈ 8150 µM)				
6.08	Insoluble(Bld)	1.65 µg/mL (≈ 4.66 µM)	Insoluble(Bld)	Insoluble(Bld)	7.32 µg/mL (≈ 20.7 µM)	Insoluble(Bld)	6.23 µg/mL (≈ 17.6 µM)	7.13 µg/mL (≈ 20.1 µM)						COc1ccc(/C=C/c2ccc(OCCCC(C)(C)C(=O)O)cc2)cc1					
6.55		17.5 µg/mL (≈ 39.3 µM)		Insoluble(Bld)	67.6 µg/mL (≈ 152 µM)	Insoluble(Bld)	17.8 µg/mL (≈ 39.9 µM)	19.6 µg/mL (≈ 44.2 µM)	16 µg/mL (≈ 35.9 µM)	68.4 µg/mL (≈ 154 µM)				CC(C)(Oc1ccc(CCCOc2ccc(C(=O)/C=C/c3ccccc3)cc2)cc1)C(=O)O					
7.44		26.9 µg/mL (≈ 64.7 µM)		Insoluble(Bld)	43 µg/mL (≈ 103 µM)		13.8 µg/mL (≈ 33.3 µM)	24.8 µg/mL (≈ 59.6 µM)	27.9 µg/mL (≈ 66.9 µM)	44.2 µg/mL (≈ 106 µM)	0.89 µg/mL (≈ 2.14 µM)			CC(C)(Oc1ccc(CCCOc2ccc(/C=C/c3ccccc3)cc2)cc1)C(=O)O					
2.96		> 50 µg/mL			> 100 µg/mL		> 50 µg/mL	> 50 µg/mL	> 50 µg/mL	> 100 µg/mL	> 100 µg/mL	> 50 µg/mL		CC(C)(Oc1ccc(Cl)cc1)C(=O)O [CLOFIBRIC ACID]					
6.63		25.5 µg/mL (≈ 62.9 µM)		Insoluble(Bld)	296 µg/mL (≈ 733 µM)	Insoluble(Bld)	> 100 µg/mL	63.5 µg/mL (≈ 157 µM)	13.9 µg/mL (≈ 34.5 µM)	300 µg/mL (≈ 741 µM)				CC(C)(Oc1ccc(CCOc2ccc(/N=N/c3ccccc3)cc2)cc1)C(=O)O		2 to 3	2 to 3	2 to 3	2 to 3
6.95	Insoluble(Bld)			Insoluble(Bld)	13 µg/mL (≈ 40.1 µM)	Insoluble(Bld)	7.39 µg/mL (≈ 22.8 µM)	8.7 µg/mL (≈ 26.8 µM)		13.6 µg/mL (≈ 41.9 µM)			Insoluble(Bld)	CC(C)(CCCOc1ccc(/C=C/c2ccccc2)cc1)C(=O)O					
4.9		> 25 µg/mL			> 120 µg/mL		> 25 µg/mL	> 25 µg/mL	> 25 µg/mL	> 120 µg/mL	33.2 µg/mL (≈ 133 µM)	15.5 µg/mL (≈ 61.8 µM)		Cc1ccc(C)c(OCCCC(C)(C)C(=O)O)c1 [GEMFIBROZIL]					
